Laboratory results from ChEMBL document CHEMBL1201862, “PubChem BioAssay data set” (2004).
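Briefly, cells in 96-well plates were exposed to five compound concentrations for 48 h, and endpoints were estimated by linear interpolation. Here, GI50 denotes the concentration required for 50% inhibition of growth.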 Activity calls are given as the source filed them. No stated cut-off is given here; in the data, active = GI50 up to about 1.1 µM and inactive = higher.

Columns and labels:
Assay in all cases: inhibition of tumour cell growth, NCI panel, 48 h
[1] = tested on: NCI-H23
[2] = tested on: KM12
[3] = tested on: HCT-116
[4] = tested on: UO-31
[5] = tested on: SN12C
[6] = tested on: UACC-257
[7] = tested on: 786-0
[8] = tested on: Malme-3M
[9] = tested on: SF-295
[10] = tested on: EKVX
[11] = tested on: SNB-78
[12] = tested on: NCI-H522
[13] = tested on: KM-20L2
[14] = tested on: HOP-18
[15] = tested on: OVCAR-5
[16] = tested on: HL-60
[17] = tested on: M14
[18] = tested on: SW-620
[19] = tested on: HCT-15
[20] = tested on: OVCAR-8
[21] = tested on: HCC 2998
[22] = tested on: K562
[23] = tested on: SF-539
[24] = tested on: NCI-H226
[25] = tested on: COLO 205
[26] = tested on: LXFL 529
[27] = tested on: SK-MEL-5
[28] = tested on: ACHN
[29] = tested on: RPMI-8226
[30] = tested on: A549
[31] = tested on: SR
[32] = tested on: XF498
[33] = tested on: IGROV-1
[34] = tested on: UACC-62
[35] = tested on: DMS-273
[36] = tested on: SK-MEL-2
[37] = tested on: RXF 631
[38] = tested on: HT-29
[39] = tested on: OVCAR-3
[40] = tested on: SK-MEL-28
[41] = tested on: DLD-1
[42] = tested on: SNB-75
[43] = tested on: SK-OV-3
[44] = tested on: U-251
[45] = tested on: M19-MEL
[46] = tested on: SF-268
[47] = tested on: CAKI-1
[48] = tested on: MOLT-4
[49] = tested on: NCI-H460
[50] = tested on: HOP-62
[51] = tested on: SNB-19
[52] = tested on: CCRF-CEM
[53] = tested on: OVCAR-4
[54] = tested on: DMS-114
[55] = tested on: HOP-92
[56] = tested on: LOX IMVI
[57] = tested on: TK-10

CCCCC/C=C1\CCC(CN(C)C)C1=O (configuration not stated)
GI50 [1]: 17.7 µM (inactive)
GI50 [2]: 4.8 µM (inactive)
GI50 [3]: 11.8 µM (inactive)
GI50 [4]: 17 µM (inactive)
GI50 [5]: 14.7 µM (inactive)
GI50 [6]: 16.3 µM (inactive)
GI50 [7]: 2.71 µM (inactive)
GI50 [8]: 14.6 µM (inactive)
GI50 [9]: 20 µM (inactive)
GI50 [10]: 26 µM (inactive)
GI50 [11]: 19.7 µM (inactive)
GI50 [12]: 4.06 µM (inactive)
GI50 [13]: 15.1 µM (inactive)
GI50 [14]: 24 µM (inactive)
GI50 [15]: 18.6 µM (inactive)
GI50 [16]: 6.97 µM (inactive)
GI50 [17]: 14.1 µM (inactive)
GI50 [18]: 3.76 µM (inactive)
GI50 [19]: 3.17 µM
GI50 [20]: > 21.5 µM (inactive)
GI50 [21]: 16.9 µM (inactive)
GI50 [22]: 1.94 µM (inactive)
GI50 [23]: 10.9 µM (inactive)
GI50 [24]: 15.5 µM (inactive)
GI50 [25]: 8.99 µM (inactive)
GI50 [26]: 1.82 µM (inactive)
GI50 [27]: 18.2 µM (inactive)
GI50 [28]: 13.9 µM (inactive)
GI50 [29]: 0.386 µM (active)
GI50 [30]: 34.1 µM (inactive)
GI50 [31]: 3.79 µM (inactive)
GI50 [32]: 14.9 µM (inactive)
GI50 [33]: 17.5 µM (inactive)
GI50 [34]: 15.9 µM (inactive)
GI50 [35]: 13.6 µM (inactive)
GI50 [36]: 19.9 µM (inactive)
GI50 [37]: 14.7 µM (inactive)
GI50 [38]: 28.2 µM (inactive)
GI50 [39]: 15.6 µM (inactive)
GI50 [40]: 9.89 µM (inactive)
GI50 [41]: 3.73 µM (inactive)
GI50 [42]: 16.2 µM (inactive)
GI50 [43]: 15 µM (inactive)
GI50 [44]: 8.2 µM (inactive)
GI50 [45]: 10.4 µM (inactive)
GI50 [46]: 19.1 µM (inactive)
GI50 [47]: 7.05 µM (inactive)
GI50 [48]: 1.95 µM (inactive)
GI50 [49]: 31.5 µM (inactive)
GI50 [50]: 17.7 µM (inactive)
GI50 [51]: 19.5 µM (inactive)
GI50 [52]: 1.56 µM (inactive)
GI50 [53]: 20.1 µM (inactive)
GI50 [54]: 13.5 µM (inactive)
GI50 [55]: 11.5 µM (inactive)
GI50 [56]: 6.79 µM (inactive)
GI50 [57]: > 23.4 µM (inactive)
